Like-named read-outs stand apart in the source and are kept apart here.
Key:
[1] = target: T1, human thymidylate synthase (TS) (Homo sapiens, UniProt P04818); experiment: CETSA primary screen / single-concentration retest, AlphaScreen, live K562 cells; assay type: cell-based; conditions: for % stabilization in screen at 50 µM: K562, 2 h, read-out: % stabilization in screen; for % stabilization at retest (6h preincubation): K562 cells
T1 construct: screening in live, non-engineered cells expressing thymidylate synthase; endogenous in cells; host or cells: K562 (human myelogenous leukemia) cells
Protocol: Compounds were placed in columns 1–22. […] At the day of the experiment the plates were allowed to thaw for 30 min followed by a brief centrifugation step (1,000 × g for 1 min) prior to removal of the seal. The compounds were then diluted with 20 μl supplemented cell culture medium using a Multidrop Combi reagent dispenser (Thermo Scientific). Finally 5 μl of the diluted compounds were transferred to a 384 well hardshell PCR plate (HSR480, BIORAD) using a Bravo liquid handling platform equipped with a 384-well head (Agilent). […] The final concentration of DMSO in the assay was 0.5% in all samples.
(§1) The screen procedure started with the addition of 5 μl of a suspension of K562 cells at a density of 10 million cells per ml to all wells of a 384 well hardshell PCR plate (HSR480, BIORAD) using an electronic multichannel pipette (Biohit). […] For the time-course experiments the incubation times were altered to include also 10 min, 30 min and 6 h. […] After the incubation step the plates were transiently heated at 50 °C for 3 min followed by a controlled cooling to 20 °C for 1 min using a real-time PCR machine (LightCycler480 system, Roche). Plate handling was then as described above for the thermal aggregation experiments. The data were analyzed using microsoft excel and GraphPad Prism 6.
(§2) A calculation of the average and standard error of means for each set of controls also allowed an illustration of how these responses varied over the 32 screening plates. The Z′ factor[38] is commonly used as a measure of how well the assay separates between the controls and this was calculated as described based on the calculated averages and standard deviations of the controls on a per plate basis. For the Tagg shift and the […] experiments the data were analyzed in GraphPad Prism using the Boltzmann sigmoid equation and the saturation binding curve (rectangular hyperbola; binding isotherm) function, respectively. As already discussed[14] these methods make use of equilibrium models for data analysis although the methodology depends on the irreversible aggregation of denatured material. For this reason we refer to the observed responses as apparent and isothermal dose-response fingerprints and are careful with any quantitative interpretations, being well aware of their dependency on experimental conditions. Experiments are on-going to address the quantitative interpretation of CETSA data.

[2] = target: T1, human thymidylate synthase (TS); experiment: ITDRF CETSA at 50 °C, AlphaScreen detection, live K562 cells; assay type: cell-based; conditions: 2 h preincubation, 50 °C for 3 min, read-out: […] EC50 (half-maximal stabilization of TS)
Protocol: For the […] experiments 11-point dose-response curves with three-fold difference in concentration between wells were generated using the Bravo liquid handling system (all serial dilutions were done in 100% DMSO). […] The concentration of DMSO was 0.5% in all samples. […] The assay ready plates were prepared as outlined above for the screen.
as §1, §2

[3] = 50 μM compound, 2 h preincubation, 50 °C, 0% = DMSO, 100% = 100 nM raltitrexed

T1 sequence (P04818 2-313 limits assumed): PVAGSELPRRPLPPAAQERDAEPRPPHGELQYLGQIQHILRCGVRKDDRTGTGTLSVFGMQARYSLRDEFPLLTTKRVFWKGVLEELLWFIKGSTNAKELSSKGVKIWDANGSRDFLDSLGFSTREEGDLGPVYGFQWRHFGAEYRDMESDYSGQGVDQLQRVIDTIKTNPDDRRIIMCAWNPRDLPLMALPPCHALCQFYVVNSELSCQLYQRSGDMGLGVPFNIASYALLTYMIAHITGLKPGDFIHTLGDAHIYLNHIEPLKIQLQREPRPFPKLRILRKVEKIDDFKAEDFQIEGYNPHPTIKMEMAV

Row | SMILES | % stabilization in screen [1, 3] | further results
1 | Cc1cn([C@H]2C[C@@H](O)[C@@H](CO)O2)c(=O)nc1N.Cl [CBK201307] | 4% | 
2 | COC(=O)/C=C/c1cn(C2OC(CO)C(O)C2O)c(=O)[nH]c1=O (stereo not drawn) [CBK201339] | -1% | 
3 | C#Cc1cn([C@@H]2O[C@H](CO)[C@H](O)C2O)c(=O)[nH]c1=O (stereo partly drawn) [CBK201179] | 20% | 
4 | Nc1cccc(-c2cn([C@H]3C[C@@H](O)[C@@H](CO)O3)c(=O)[nH]c2=O)c1 [CBK201262] | 16% | 
5 | O=C(NC/C=C/c1cn(C2OC(CO)C(O)C2O)c(=O)[nH]c1=O)C(F)(F)F (stereo not drawn) [CBK201298] | -1% | 
6 | COC1C(O)C(CO)OC1n1cc(F)c(=O)[nH]c1=O (stereo not drawn) [CBK201253] | 61% | 
7 | Cc1cn([C@H]2C[C@@H](O)[C@@H](CN)O2)c(=O)[nH]c1=O [CBK201315] | -1% | 
8 | O=c1[nH]c(=O)n([C@H]2C[C@@H](O)[C@@H](CO)O2)cc1CCO [CBK201239] | 17% | 
9 | c1cnc(N2CCN(Cc3ccc4c(c3)OCO4)CC2)nc1 [CBK041124C, Piribedil, reference compound] |  | % stabilization in screen at 50 µM [1, 3]: 17%
10 | Nc1ccn([C@@H]2O[C@H](CO)[C@@H](O)C2(F)F)c(=O)n1 [CBK200978, gemcitabine, reference compound] |  | % stabilization in screen at 50 µM [1]: 0%
11 | CN(C)/C=N/c1nc(=O)n([C@H]2CC(O)[C@@H](CO)O2)cc1/C=C/C(=O)NCCCCCCNC(=O)C(F)(F)F (stereo partly drawn) [CBK201330] | 13% | 
12 | Cc1ccc(-c2cc(C(F)(F)F)nn2-c2ccc(S(N)(=O)=O)cc2)cc1 [CBK041793, Celecoxib, reference compound] |  | % stabilization in screen at 50 µM [1]: 61%
13 | O=c1[nH]c(=O)n([C@H]2C[C@@H](O)[C@@H](CO)O2)cc1O [CBK201317] | 16% | 
14 | Cc1cn([C@H]2C[C@@H](O)[C@@H](CI)O2)c(=O)[nH]c1=O [CBK201197] | -1% | 
15 | Nc1ncnc2c1nc(Br)n2[C@@H]1O[C@H](CO)[C@@H](O)[C@H]1O [CBK015742, 8-bromoadenosine] |  | % stabilization in screen at 50 µM [1]: 20%
16 | O=C(NC/C=C/c1cn(C2CC(O)C(CO)O2)c(=O)[nH]c1=O)C(F)(F)F (stereo not drawn) [CBK201249] | 17% | 
17 | Nc1nc(=O)n([C@H]2C[C@@H](O)[C@@H](CO)O2)cc1I [CBK201226] | 7% | 
18 | Cc1ccc2c(c1)c1c3n2CCNC3CCC1 (stereo not drawn) [CBK200931G, Pirlindole, reference compound] |  | % stabilization in screen at 50 µM [1]: 23%
19 | O=C(/C=C/c1cn(C2CC(O)C(CO)O2)c(=O)[nH]c1=O)NCCCCCCNC(=O)C(F)(F)F (stereo not drawn) [CBK201310] | 15% | 

Row | SMILES | % stabilization in screen [1, 3] | further results
20 | Cc1cn(C2CC(O)C(CNC(=O)C(F)(F)F)O2)c(=O)[nH]c1=O (stereo not drawn) [CBK201200] | 0% | 
21 | O=c1[nH]c(=O)n([C@@H]2O[C@H](CO)[C@H](O)C2O)cc1I (stereo partly drawn) [CBK201304] | -1% | 
22 | COC1C(O)C(CO)OC1n1cc(F)c(=S)[nH]c1=O (stereo not drawn) [CBK201168] | 2% | % stabilization at retest (6h preincubation) [1]: 5%
23 | Nc1nc(N)c2nc(-c3ccccc3)c(N)nc2n1 [CBK012158, Triamterene, reference compound] |  | % stabilization in screen at 50 µM [1]: 78%
24 | O=c1[nH]c(=O)n([C@@H]2O[C@H](CO)[C@H](O)C2O)cc1Br (stereo partly drawn) [CBK201180] | -1% | 
25 | CC(=O)OCC(=O)[C@@]12OC3(CCCC3)O[C@@H]1C[C@H]1[C@@H]3CCC4=CC(=O)C=C[C@]4(C)[C@@]3(F)[C@@H](O)C[C@@]12C [CBK200950, Amcinonid, reference compound] |  | % stabilization in screen at 50 µM [1, 3]: 56%
26 | C[CH2][Hg][S]c1ccccc1C(=O)[O-].[Na+] [CBK200591N, Thimerosal, reference compound] | 115% | 
27 | COc1ccccc1N1CCN(CC(O)COc2cccc3ccccc23)CC1 (stereo not drawn) [CBK041301C, Naftopidil, reference compound] |  | % stabilization in screen at 50 µM [1]: 59%
28 | Nc1nc(=O)n([C@@H]2O[C@H](CO)[C@H](O)C2O)cc1I (stereo partly drawn) [CBK201306] | -1% | 
29 | COC1C(O)C(CO)OC1n1cc(F)c(Oc2c(C)cc(C)cc2C)nc1=O (stereo not drawn) [CBK201279] | 0% | 
30 | Cc1cn([C@H]2C[C@@H](O)[C@@H](CO)O2)c(=O)n(CCC#N)c1=O [CBK201322] | -1% | 
31 | CN1CCN(c2c(F)cc3c(=O)c(C(=O)O)cn(CCF)c3c2F)CC1 [CBK201030, Fleroxacin, reference compound] |  | % stabilization in screen at 50 µM [1, 3]: 66%
32 | O=c1[nH]c(=O)n([C@@H]2O[C@H](CO)[C@@H](O)[C@H]2O)cc1F [5-fluorouridine] |  | EC50 [2]: 47 ± 15 nM
33 | Cc1cc2cn([C@H]3C[C@@H](O)[C@@H](CO)O3)c(=O)nc2[nH]1 [CBK201302] | 21% | 
34 | O=C(O)/C=C/c1cn([C@H]2C[C@@H](O)[C@@H](CO)O2)c(=O)[nH]c1=O [CBK201174] | 17% | 
35 | Cn1c(=O)ccn([C@@H]2O[C@H](CO)[C@H](O)C2O)c1=O (stereo partly drawn) [CBK201281] | -1% | 
36 | O=c1nc2c(cn1[C@H]1C[C@@H](O)[C@@H](CO)O1)Sc1ccccc1N2 [CBK201237] | 9% | 
37 | CC(C)NCC(O)c1ccc(NS(C)(=O)=O)cc1 (stereo not drawn) [CBK012353C, Sotalol, reference compound] |  | % stabilization in screen at 50 µM [1]: 14%
38 | C=CCOc1nc2c(=O)[nH]c(NC(=O)C(C)C)nc2n1[C@H]1C[C@H](O)[C@@H](CO)O1 [CBK201216, 8-allyloxy-N2-isobutyryl-2′-deoxyguanosine] |  | % stabilization in screen at 50 µM [1]: 30%

Row | SMILES | % stabilization in screen [1, 3] | further results
39 | O=c1[nH]c(=O)n([C@H]2C[C@@H](O)[C@@H](CO)O2)cc1CO [CBK201332] | 9% | % stabilization at retest (6h preincubation) [1]: 7%
40 | Cc1ccc(S(=O)(=O)OC[C@H]2O[C@@H](n3ccc(=O)[nH]c3=O)C[C@H]2O)cc1 [CBK201283] | -2% | 
41 | CCOc1nc(=O)c(C)cn1C1CC(O)C(CO)O1 (stereo not drawn) [CBK201334] | -1% | 
42 | O=C(/C=C/c1cn([C@H]2C[C@@H](O)[C@@H](CO)O2)c(=O)[nH]c1=O)ON1C(=O)CCC1=O [CBK201188] | 16% | 
43 | Nc1ncn([C@@H]2O[C@H](CO)[C@@H](O)[C@H]2O)c(=O)n1 [CBK200768, 5-Azacytidine, reference compound] |  | % stabilization in screen at 50 µM [1]: 32%
44 | Cc1cc2cn([C@H]3C[C@@H](O)[C@@H](CO)O3)c(=O)nc2o1 [CBK201287] | 20% | 
45 | O=C(/C=C/c1cn(C2OC(CO)C(O)C2O)c(=O)[nH]c1=O)NCCCCCCNC(=O)C(F)(F)F (stereo not drawn) [CBK201231] | -1% | 
46 | Cc1cn2c(nc1=O)OC[C@H]1O[C@@H]2C[C@H]1O [CBK201280] | 0% | 
47 | Cc1cn(C2CC(O)C(C3N(c4ccccc4)CCN3c3ccccc3)O2)c(=O)[nH]c1=O (stereo not drawn) [CBK201232] | -1% | 
48 | Clc1ccc(C(Cn2ccnc2)OCc2csc3c(Cl)cccc23)c(Cl)c1 (stereo not drawn) [CBK200917G, Sertaconazole nitrate, reference compound] |  | % stabilization in screen at 50 µM [1, 3]: 66%
49 | O=c1ccn([C@H]2C[C@@H](O)[C@@H](CO)O2)c(=O)[nH]1 [CBK201316] | -1% | 
50 | O=C(O)/C=C/c1cn([C@@H]2O[C@H](CO)[C@H](O)C2O)c(=O)[nH]c1=O (stereo partly drawn) [CBK201270] | -1% | 
51 | Cc1cn([C@@H]2O[C@H](CO)[C@H](O)C2O)c(=O)[nH]c1=O (stereo partly drawn) [CBK201265] | 17% | 
52 | C#CCOc1cn([C@H]2C[C@@H](O)[C@@H](CO)O2)c(=O)[nH]c1=O [CBK201278] | 7% | % stabilization at retest (6h preincubation) [1]: 12%
53 | COC1C(O)C(CO)OC1n1cc(C)c(=O)[nH]c1=O (stereo not drawn) [CBK201251] | -1% | 
54 | O=c1ncccn1[C@@H]1O[C@H](CO)[C@H](O)C1O (stereo partly drawn) [CBK201195] | 22% | 
55 | Nc1ccn([C@H]2C[C@@H](O)[C@@H](CO)O2)c(=O)n1 [CBK201274] | -1% | 
56 | O=C(/C=C/c1cn(C2CC(O)C(CO)O2)c(=O)[nH]c1=O)NCCNC(=O)C(F)(F)F (stereo not drawn) [CBK201214] | 9% | 
57 | Cc1cn(C2CC(O)C(CO)O2)c(=O)[nH]c1=O (stereo not drawn) [CBK011998] | -1% | 

Reference: paper PMC4820820, “CETSA screening identifies known and novel thymidylate synthase inhibitors and slow intracellular activation of 5-fluorouracil” (Nature Communications, 2016)
